Data as given in US9409907B2, “Inhibitor compounds” (Cancer Research Technology Limited, priority 2012, dated 2016).

The compounds below were run against full length MPS1 (Homo sapiens (Human), UniProt P33981) (assay: Measurement of inhibition of MPS1 kinase (Caliper EZ reader mobility-shift enzyme assay)). Conditions: full length MPS1 12.5 nM or 3 nM, H236 peptide 5 μM, ATP 10 μM, 60 min at room temperature.
Format: biochemical
Description: Measurement of Inhibition of MPS1 Kinase
The reaction was carried out for 60 min at room temperature and stopped by the addition of buffer (10 μl) containing 20 mM EDTA, 0.05% (v/v) Brij-35, in 0.1M HEPES-buffered saline (Free acid, Sigma, UK). The plate was read on a Caliper EZ reader II (Caliper Life Sciences).
The % inhibition of the compounds is calculated relative to the means of selected control wells.

Chain of full length MPS1 (P33981 whole entry): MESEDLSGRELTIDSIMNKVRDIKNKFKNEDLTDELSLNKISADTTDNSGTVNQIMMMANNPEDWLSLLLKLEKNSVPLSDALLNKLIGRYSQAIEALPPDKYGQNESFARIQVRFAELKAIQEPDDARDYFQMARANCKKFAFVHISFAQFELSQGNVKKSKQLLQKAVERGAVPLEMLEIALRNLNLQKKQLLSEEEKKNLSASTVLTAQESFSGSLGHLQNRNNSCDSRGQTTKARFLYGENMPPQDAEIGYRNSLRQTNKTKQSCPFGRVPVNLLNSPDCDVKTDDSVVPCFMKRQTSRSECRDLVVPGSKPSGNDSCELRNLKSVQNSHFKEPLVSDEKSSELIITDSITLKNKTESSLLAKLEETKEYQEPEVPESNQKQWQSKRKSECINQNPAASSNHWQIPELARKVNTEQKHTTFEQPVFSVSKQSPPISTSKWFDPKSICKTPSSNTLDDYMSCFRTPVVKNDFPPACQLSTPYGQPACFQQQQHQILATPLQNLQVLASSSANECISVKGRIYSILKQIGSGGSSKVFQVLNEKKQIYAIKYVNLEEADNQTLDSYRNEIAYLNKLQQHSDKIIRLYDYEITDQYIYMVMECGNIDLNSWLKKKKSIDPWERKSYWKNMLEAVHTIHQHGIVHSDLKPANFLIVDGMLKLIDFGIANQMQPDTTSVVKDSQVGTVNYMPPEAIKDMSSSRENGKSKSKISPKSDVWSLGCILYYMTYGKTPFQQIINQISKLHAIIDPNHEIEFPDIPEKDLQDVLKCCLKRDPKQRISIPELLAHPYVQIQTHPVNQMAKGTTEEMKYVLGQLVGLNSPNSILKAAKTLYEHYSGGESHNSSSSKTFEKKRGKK

| SMILES | IC50 |
| --- | --- |
| COc1cc(-c2nncn2C)ccc1Nc1ncc2cc(C)nc(NCC(C)(C)C)c2n1 [Example 179, N2-(2-methoxy-4-(4-methyl-4H-1,2,4-triazol-3-yl)phenyl)-6-methyl-N8-neopentylpyrido[3,4-d]pyrimidine-2,8-diamine] | 2 nM |
| COCCn1c(-c2ccc(Nc3ncc4cc(C)nc(NCC(C)(C)C)c4n3)c(OC)c2)cnc1C [Example 181] | 19.4 nM |
| CCOc1cc(-c2nncn2C)ccc1Nc1ncc2cc(C)nc(NCC(C)(C)C)c2n1 [Example 182] | 3 nM |
| COc1cc(N2CCN(S(C)(=O)=O)CC2)ccc1Nc1ncc2cc(C)nc(NCC(C)(C)C)c2n1 [Example 183] | 16 nM |
| COc1cc(-c2cnn(C)c2CO)ccc1Nc1ncc2ccnc(NCC3(C)CCOC3)c2n1 (stereo not shown) [Example 185] | 1 nM |
| COCCn1c(-c2ccc(Nc3ncc4ccnc(NCC5(C)CCOC5)c4n3)c(OC)c2)cnc1C (stereo not shown) [Example 187] | 2 nM |
| CCOc1cc(-c2nncn2C)ccc1Nc1ncc2ccnc(NCC3(C)CCOC3)c2n1 (stereo not shown) [Example 189] | 1 nM |
| CS(=O)(=O)c1ccc(Nc2ncc3ccnc(N4CCC5(COC5)C4)c3n2)c(Cl)c1 [Example 199] | 25 nM |
| Clc1cc(-c2cncnc2)ccc1Nc1ncc2ccnc(N3CCC4(COC4)C3)c2n1 [Example 200] | 6 nM |
| Cc1nnc(-c2ccc(Nc3ncc4ccnc(N5CCC6(COC6)C5)c4n3)c(Cl)c2)o1 [Example 201] | 40 nM |
| N#Cc1ccc(Nc2ncc3ccnc(N4CCC5(COC5)C4)c3n2)c(Cl)c1 [Example 205] | 87 nM |
| COc1cc(C#N)ccc1Nc1ncc2ccnc(N3CCC4(COC4)C3)c2n1 [Example 206] | 17 nM |
| Clc1ccc(Nc2ncc3ccnc(N4CCC5(COC5)C4)c3n2)c(Cl)c1 [Example 207] | 94 nM |
| COc1cc(-c2cnn(C)c2)ccc1Nc1ncc2ccnc(-c3cncnc3)c2n1 [Example 208, N-(2-methoxy-4-(1-methyl-1H-pyrazol-4-yl)phenyl)-8-(pyrimidin-5H)pyrido[3,4-d]pyrimidin-2-amine] | 200 nM |
| COc1cc(-c2cnn(C)c2)ccc1Nc1ncc2ccnc(-c3ccncc3)c2n1 [Example 209, N-(2-Methoxy-4-(1-methyl-1H-pyrazol-4-yl)phenyl)-8-(pyridin-4-yl)pyrido[3,4-d]pyrimidin-2-amine pyridin-4-ylboronate] | 7 nM |

Continued, values first:

| IC50 | SMILES |
| --- | --- |
| 3 nM | COc1cc(-c2nncn2C)ccc1Nc1ncc2cc(C)nc(NCC(C)(C)OC)c2n1 [Example 180] |
| 2 nM | COc1cc(-c2cnn(C)c2CO)ccc1Nc1ncc2ccnc(NCC(C)(C)OC)c2n1 [Example 184] |
| 4 nM | COCCn1c(-c2ccc(Nc3ncc4ccnc(NCC(C)(C)OC)c4n3)c(OC)c2)cnc1C [Example 186] |
| 2 nM | CCOc1cc(-c2nncn2C)ccc1Nc1ncc2ccnc(NCC(C)(C)OC)c2n1 [Example 188] |
| 3 nM | COc1cc(-c2cn(C)nc2C)ccc1Nc1ncc2ccnc(NCC(C)(C)OC)c2n1 [Example 190] |
| 2 nM | COc1cc(-c2cn(C)nc2C)ccc1Nc1ncc2ccnc(NCC3(C)CCOC3)c2n1 (stereo not shown) [Example 191] |
| 5 nM | COc1cc(-c2cn(C)nc2C)ccc1Nc1ncc2cc(C)nc(NCC(C)(C)OC)c2n1 [Example 192] |
| 4 nM | COc1cc(C(=O)N2CC(OC)C2)ccc1Nc1ncc2ccnc(NCC(C)(C)OC)c2n1 [Example 193] |
| 11 nM | COc1cc(C(=O)N(C)C)ccc1Nc1ncc2ccnc(NCC(C)(C)OC)c2n1 [Example 194] |
| 8 nM | COc1cc(C(=O)N2CCN(C)CC2)ccc1Nc1ncc2ccnc(NCC(C)(C)OC)c2n1 [Example 195] |
| 20 nM | COc1cc(-c2ncnn2C)ccc1Nc1ncc2cc(C)nc(NCC(C)(C)OC)c2n1 [Example 196] |
| 34 nM | COC(C)(C)CNc1nc(C)cc2cnc(Nc3ccc(-c4cnn(C)c4)cc3OC(F)F)nc12 [Example 197] |
| 9 nM | COc1cc(-c2cnn(C)c2CO)ccc1Nc1ncc2cc(C)nc(NCC(C)(C)OC)c2n1 [Example 198] |
| 70 nM | COC(C)(C)CNc1nccc2cnc(Nc3ccc(Cl)cc3OC(F)F)nc12 [Example 202] |
| 46 nM | COC(C)(C)CNc1nccc2cnc(Nc3ccc(F)cc3OC(F)F)nc12 [Example 203] |
| 2 nM | COC(C)(C)CNc1nccc2cnc(Nc3ccc(-c4cnn(C)c4)cc3OC(F)F)nc12 [Example 204] |
